Experimental data taken from patent US20050222402A1, “Dna encoding rat bombesin receptor subtype-3 (brs-3) and uses thereof” (priority 2001, published 2005).
Numbering of substitutions follows the chain as printed. Non-standard residues stand in square brackets, D forms with d. Residues, ends and D or L forms follow the SMILES beside them. Nle = CCCC[C@H](N)C(=O)O; βAla = NCCC(=O)O

Columns and labels:
Assay in all cases: Calcium mobilization assay (FLIPR), substitution mutant
Type in all cases: cell-based
[1] = molecular target: T1, Rat BRS-3/SQT (RB3-SQT) (Rattus norvegicus, UniProt Q8K418, E299Q/S300T/Y298S)
T1 construct: expressed in transfected cells; host or cells: 293EBNA cells, pE3 expression vector
T1 sequence (Q8K418 1-399 Y298S/E299Q/S300T): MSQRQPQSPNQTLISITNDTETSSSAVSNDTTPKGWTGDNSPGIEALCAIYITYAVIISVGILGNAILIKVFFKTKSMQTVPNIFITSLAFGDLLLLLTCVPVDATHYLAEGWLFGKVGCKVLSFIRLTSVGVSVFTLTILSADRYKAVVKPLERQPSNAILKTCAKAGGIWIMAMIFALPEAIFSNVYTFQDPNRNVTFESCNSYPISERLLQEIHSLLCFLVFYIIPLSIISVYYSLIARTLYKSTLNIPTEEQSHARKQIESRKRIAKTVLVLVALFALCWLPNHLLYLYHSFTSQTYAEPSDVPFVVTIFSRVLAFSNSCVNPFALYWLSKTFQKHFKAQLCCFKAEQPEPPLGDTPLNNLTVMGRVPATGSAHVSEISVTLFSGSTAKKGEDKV
Source text: (§1) Chimeric rat/human BRS-3 genes and substitution mutant rat BRS-3 genes were constructed by using PCR mutagenesis techniques (Fong, T. in Structure-function analysis of G protein coupled receptors, J, Wess, ed, Wiley-Liss, pp. 1-20, (1999)). All the mutant and wild type BRS-3 genes were cloned into pE3 expression vector which contains CMV early promoter, hygromycin-resistance gene and OriP segment from Epstein-Bar virus.
(§2) The functional activity of rat BRS-3 was also studied by measuring the agonist-induced calcium mobilization response using a Fluorescence Imaging Plate Reader (Molecular Devices, Sunnyvale, Calif.). Transfected 293EBNA cells were plated onto poly-D-lysine coated 96-well plates with black wall and clear bottom (Becton Dickinson, Franklin Lakes, N.J.). After 16-48 hr culture, the cells were loaded with 4 uM Fluo-3-AM fluorescent calcium-indicator dye (Molecular Probes, Eugene, OR) in assay buffer (Hank's balanced salts solution, 10 mM HEPES, pH7.4, 0.1% bovine serum albumin, 2.5 mM probenecid).
(§3) The changes in intracellular calcium concentration, as indicated by Fluo-3 fluorescence, were immediately measured by FLIPR. Maximal changes in fluorescence over base line were used to determine agonist response.
(§4) The EC50 values were mean±S.E. calculated from dose-response curves of 3-5 repeated experiments using FLIPR assays.
(§5) To determine which amino acids in the E3 loop of human BRS-3 conferred dYB activity upon rat BRS-3, several substitution BRS-3 mutants were made in which the amino acids in the E3 loop of rat BRS-3 were substituted with residues that match human BRS-3.

[2] = molecular target: T2, Rat BRS-3/VD (RB3-VD) (Rattus norvegicus, UniProt Q8K418, A302V/E303D)
T2 construct: expressed in transfected cells; host or cells: 293EBNA cells, pE3 expression vector
T2 sequence (Q8K418 1-399 A302V/E303D): T1 sequence (Q8K418 1-399 Y298S/E299Q/S300T) with S298Y, Q299E, T300S, A302V, E303D
Source text: as §1, §2, §3, §4, §5

[3] = molecular target: T3, Rat BRS-3/AMH (RB3-AMH) (Rattus norvegicus, UniProt Q8K418, D306A/P308H/V307M)
T3 construct: expressed in transfected cells; host or cells: 293EBNA cells, pE3 expression vector
T3 sequence (Q8K418 1-399 D306A/V307M/P308H): T1 sequence (Q8K418 1-399 Y298S/E299Q/S300T) with S298Y, Q299E, T300S, D306A, V307M, P308H
Source text: as §1, §2, §3, §4, §5

[4] = molecular target: T4, Rat BRS-3/IF (RB3-IF) (Rattus norvegicus, UniProt Q8K418, V310I/V311F)
T4 construct: expressed in transfected cells; host or cells: 293EBNA cells, pE3 expression vector
T4 sequence (Q8K418 1-399 V310I/V311F): T1 sequence (Q8K418 1-399 Y298S/E299Q/S300T) with S298Y, Q299E, T300S, V310I, V311F
Source text: as §1, §2, §3, §4, §5

Row | SMILES | improvement of dYB potency in calcium mobilization ([1]; RB3-SQT vs rat BRS-3) [fold] | effect of mutation on dYB receptor activity ([2]; RBB3-VD vs rat BRS-3) | improvement of dYB potency in calcium mobilization ([3]; RB3-AMH vs rat BRS-3) [fold] | effect of mutation on dYB receptor activity ([4]; RBB3-IF vs rat BRS-3) | EC50 [1] [nM] | EC50 [2] [nM] | EC50 [3] [nM] | EC50 [4] [nM]
1 | CCCC[C@H](NC(=O)[C@H](Cc1ccccc1)NC(=O)[C@H](Cc1c[nH]cn1)NC(=O)CCNC(=O)[C@@H](NC(=O)[C@H](C)NC(=O)[C@H](Cc1c[nH]c2ccccc12)NC(=O)[C@H](CCC(N)=O)NC(=O)[C@H](N)Cc1ccc(O)cc1)C(C)C)C(N)=O [dYB, [D-Tyr6-betaAla11-Phe13-Nle14] bombesin (6-14)] (H-[dY]QWAV[βAla]HF[Nle]-NH2) | 5 | little effect on the receptor activity | 6 | little effect on the receptor activity | – | – | – | –
2 | CCCC[C@H](NC(=O)[C@H](Cc1ccccc1)NC(=O)[C@H](Cc1cnc[nH]1)NC(=O)CCNC(=O)[C@@H](NC(=O)[C@H](C)NC(=O)[C@H](Cc1c[nH]c2ccccc12)NC(=O)[C@H](CCC(N)=O)NC(=O)[C@H](N)Cc1ccc(O)cc1)C(C)C)C(N)=O [dYB, [D-Tyr6-betaAla11-Phe13-Nle14] bombesin (6-14)] (H-[dY]QWAV[βAla]HF[Nle]-NH2) | – | – | – | – | 390 ± 80 | 930 ± 150 | 370 ± 70 | 1300 ± 230
